Assay results reported in patent US7642251B2, “Compounds for the treatment of hepatitis C” (Bristol-Myers Squibb Company, priority 2007, dated 2010).
Where two headings read alike, the source gives them in different places.

How the values were obtained:
[1] = biological target: T1, HCV NS5B (Hepatitis C virus genotype 1b, UniProt Q9WMX2); experiment: Modified HCV NS5B RdRp enzyme assay (preincubation protocol); format: biochemical
T1 construct: The cDNA encoding the NS5B protein of HCV, genotype 1b; made in house; host or cells: E. coli BL21(DE3)
T1 sequence (Q9WMX2 2420-2992): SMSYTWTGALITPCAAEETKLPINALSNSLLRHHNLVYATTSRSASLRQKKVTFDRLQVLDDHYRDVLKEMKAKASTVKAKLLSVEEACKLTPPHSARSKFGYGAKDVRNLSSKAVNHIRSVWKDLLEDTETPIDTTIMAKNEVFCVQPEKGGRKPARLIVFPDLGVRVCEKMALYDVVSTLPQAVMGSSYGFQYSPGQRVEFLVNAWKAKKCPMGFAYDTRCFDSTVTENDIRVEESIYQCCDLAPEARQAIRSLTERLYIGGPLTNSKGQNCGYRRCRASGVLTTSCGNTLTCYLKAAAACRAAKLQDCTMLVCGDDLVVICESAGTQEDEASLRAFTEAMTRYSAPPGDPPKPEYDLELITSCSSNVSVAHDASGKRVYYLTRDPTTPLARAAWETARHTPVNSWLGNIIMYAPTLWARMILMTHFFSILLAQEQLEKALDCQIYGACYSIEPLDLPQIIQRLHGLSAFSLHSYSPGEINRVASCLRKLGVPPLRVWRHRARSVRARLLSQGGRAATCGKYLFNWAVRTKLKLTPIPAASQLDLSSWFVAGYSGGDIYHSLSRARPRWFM
Protocol: HCV NS5B RdRp cloning, expression, and purification. The cDNA encoding the NS5B protein of HCV, genotype 1b, was cloned into the pET21a expression vector. The protein was expressed with an 18 amino acid C-terminal truncation to enhance the solubility. The E. coli competent cell line BL21(DE3) was used for expression of the protein. Cultures were grown at 37° C. for ˜4 hours until the cultures reached an optical density of 2.0 at 600 nm. The cultures were cooled to 20° C. and induced with 1 mM IPTG. Fresh ampicillin was added to a final concentration of 50 μg/ml and the cells were grown overnight at 20° C.
Cell pellets (3 L) were lysed for purification to yield 15-24 mgs of purified NS5B. The lysis buffer consisted of 20 mM Tris-HCl, pH 7.4, 500 mM NaCl, 0.5% triton X-100, 1 mM DTT, 1 mM EDTA, 20% glycerol, 0.5 mg/ml lysozyme, 10 mM MgCl2, 15 ug/ml deoxyribonuclease I, and Complete™ protease inhibitor tablets (Roche). After addition of the lysis buffer, frozen cell pellets were resuspended using a tissue homogenizer. To reduce the viscosity of the sample, aliquots of the lysate were sonicated on ice using a microtip attached to a Branson sonicator. The sonicated lysate was centrifuged at 100,000×g for 1 hr at 4° C. and filtered through a 0.2 μm filter unit (Corning).
The protein was purified using three sequential chromatography steps: Heparin sepharose CL-6B, polyU sepharose 4B, and Hitrap SP sepharose (Pharmacia). The chromatography buffers were identical to the lysis buffer but contained no lysozyme, deoxyribonuclease I, MgCl2 or protease inhibitor and the NaCl concentration of the buffer was adjusted according to the requirements for charging the protein onto the column. Each column was eluted with a NaCl gradient which varied in length from 5-50 column volumes depending on the column type. After the final chromatography step, the resulting purity of the enzyme is >90% based on SDS-PAGE analysis. The enzyme was aliquoted and stored at −80° C.
Standard HCV NS5B RdRp enzyme assay. HCV RdRp genotype 1b assays were run in a final volume of 60 μl in 96 well plates (Costar 3912). The assay buffer is composed of 20 mM Hepes, pH 7.5, 2.5 mM KCl, 2.5 mM MgCl2, 1 mM DTT, 1.6 U RNAse inhibitor (Promega N2515), 0.1 mg/ml BSA (Promega R3961), and 2% glycerol. All compounds were serially diluted (3-fold) in DMSO and diluted further in water such that the final concentration of DMSO in the assay was 2%. HCV RdRp genotype 1b enzyme was used at a final concentration of 28 nM. A polyA template was used at 6 nM, and a biotinylated oligo-dT12 primer was used at 180 nM final concentration. Template was obtained commercially (Amersham 27-4110). Biotinylated primer was prepared by Sigma Genosys. 3H-UTP was used at 0.6 μCi (0.29 μM total UTP). Reactions were initiated by the addition of enzyme, incubated at 30° C. for 60 min, and stopped by adding 25 μl of 50 mM EDTA containing SPA beads (4 μg/μl, Amersham RPNQ 0007). Plates were read on a Packard Top Count NXT after >1 hr incubation at room temperature.
Modified HCV NS5B RdRp enzyme assay. A modified enzyme assay was performed essentially as described for the standard enzyme assay except for the following: The biotinylated oligo dT12 primer was precaptured on streptavidin-coated SPA beads by mixing primer and beads in assay buffer and incubating at room temperature for one hour. Unbound primer was removed after centrifugation. The primer-bound beads were resuspended in 20 mM Hepes buffer, pH 7.5 and used in the assay at final concentrations of 20 nM primer and 0.67 μg/μl beads. Order of addition in the assay: enzyme (14 nM) was added to diluted compound followed by the addition of a mixture of template (0.2 nM), 3H-UTP (0.6 μCi, 0.29 μM), and primer-bound beads, to initiate the reaction; concentrations given are final. Reactions were allowed to proceed for 4 hours at 30° C.
IC50 values for compounds were determined using seven different [I]. […]

[2] = tested on: HCV replicon cells; experiment: HCV replicon FRET assay; format: cell-based; conditions: Hepatitis C virus
From the text: FRET Assay Preparation. To perform the HCV FRET screening assay, 96-well cell culture plates were used. The FRET peptide (Anaspec, Inc.) (Taliani et al., Anal. Biochem. 1996, 240, 60-67) contains a fluorescence donor, EDANS, near one end of the peptide and an acceptor, DABCYL, near the other end. The fluorescence of the peptide is quenched by […] resonance energy transfer (RET) between the donor and the acceptor, but as the NS3 protease cleaves the peptide the products are released from RET quenching and the fluorescence of the donor becomes apparent. The assay reagent was made as follows: 5× cell Luciferase cell culture lysis reagent from Promega (#E153A) diluted to 1× with dH2O, NaCl added to 150 mM final, the FRET peptide diluted to 20 μM final from a 2 mM stock.
To prepare plates, HCV replicon cells, with or without a Renilla luciferase reporter gene, were trypsinized and placed into each well of a 96-well plate with titrated test compounds added in columns 3 through 12; columns 1 and 2 contained a control compound (HCV protease inhibitor), and the bottom row contained cells without compound. The plates were then placed in a CO2 incubator at 37° C.
Assays. Subsequent to addition of the test compounds described above (FRET Assay Preparation), at various times the plate was removed and Alamar blue solution (Trek Diagnostics, #00-100) was added per well as a measure of cellular toxicity. After reading in a Cytoflour 4000 instrument (PE Biosystems), plates were rinsed with PBS and then used for FRET assay by the addition of 30 ul of the FRET peptide assay reagent described above (FRET Assay Preparation) per well. The plate was then placed into the Cytoflour 4000 instrument which had been set to 340 excite/490 emission, automatic mode for 20 cycles and the plate read in a kinetic mode. Typically, the signal to noise using an endpoint analysis after the reads was at least three-fold. Alternatively, after Alamar blue reading, plates were rinsed with PBS, 50 ul of DMEM (high glucose) without phenol red was added and plates were then used for luciferase assay using the Promega Dual-Glo Luciferase Assay System.
Compound analysis was determined by quantification of the relative HCV replicon inhibition and the relative cytotoxicity values. To calculate cytoxicity values, the average Alamar Blue fluorescence signals from the control wells were set as 100% non-toxic. The individual signals in each of the compound test wells were then divided by the average control signal and multiplied by 100% to determine […]. To calculate the HCV replicon inhibition values, an average background value was obtained from the two wells containing the highest amount of HCV protease inhibitor at the end of the assay period. These numbers were similar to those obtained from naïve Huh-7 cells.
The background numbers were then subtracted from the average signal obtained from the control wells and this number was used as 100% activity. The individual signals in each of the compound test wells were then divided by the averaged control values after background subtraction and multiplied by 100% to determine percent activity. EC50 values for a protease inhibitor titration were calculated as the concentration which caused a 50% reduction in FRET or luciferase activity. The two numbers generated for the compound plate, percent cytoxicity and percent activity were used to determine compounds of interest for further analysis.

[3] = preincubation protocol, read-out: IC50

| Structure (SMILES) | IC50 [1, 3] | EC50 ([2]; FRET assay, read-out: EC50) | IC50 [1] | EC50 [2] |
| --- | --- | --- | --- | --- |
| COc1ccc2c(c1)C=C(c1ccccc1)Cn1c-2c(C2CCCCC2)c2ccc(C(=O)NS(=O)(=O)C(C)C)cc21 | 4.58 to 500 nM | > 500 nM | – | – |
| COc1ccc2c(c1)C=C(c1ncccc1C(=O)N1CCC(O)CC1)Cn1c-2c(C2CCCCC2)c2ccc(C(=O)O)cc21 | 4.58 to 500 nM | 4.58 to 500 nM | – | – |
| COc1ccc2c(c1)C=C(c1ncccc1N(C)C)Cn1c-2c(C2CCCCC2)c2ccc(C(=O)O)cc21 | 4.58 to 500 nM | 4.58 to 500 nM | – | – |
| COc1ccc2c(c1)C=C(c1ccccc1C(=O)N1CCOCC1)Cn1c-2c(C2CCCCC2)c2ccc(C(=O)OC(C)(C)C)cc21 | > 500 nM | > 500 nM | – | – |
| COc1ccc2c(c1)C=C(c1ncccc1S(=O)(=O)N1CCOCC1)Cn1c-2c(C2CCCCC2)c2ccc(C(=O)O)cc21 | 4.58 to 500 nM | 4.58 to 500 nM | – | – |
| COc1ccc2c(c1)C=C(c1cccc(OCCN3CCOCC3)c1)Cn1c-2c(C2CCCCC2)c2ccc(C(=O)O)cc21 | 4.58 to 500 nM | > 500 nM | – | – |
| COc1ccc2c(c1)CC(c1cccc(OCCN3CCOCC3)c1)Cn1c-2c(C2CCCCC2)c2ccc(C(=O)NS(=O)(=O)C(C)C)cc21 (stereo not drawn) | 4.58 to 500 nM | 4.58 to 500 nM | – | – |
| COc1ccc2c(c1)C=C(c1ncccc1C(=O)N1CCCCC1)Cn1c-2c(C2CCCCC2)c2ccc(C(=O)NS(=O)(=O)N(C)C)cc21 | 4.58 to 500 nM | 4.58 to 500 nM | – | – |
| COc1ccc2c(c1)C=C(c1ccccc1OCCN1CCOCC1)Cn1c-2c(C2CCCCC2)c2ccc(C(=O)NS(=O)(=O)C(C)C)cc21 | 4.58 to 500 nM | 4.58 to 500 nM | – | – |
| COc1ccc2c(c1)C=C(c1ncccc1C(=O)N1CCCC1)Cn1c-2c(C2CCCCC2)c2ccc(C(=O)NS(=O)(=O)N(C)C)cc21 | 4.58 to 500 nM | 4.58 to 500 nM | – | – |
| COc1ccc2c(c1)C=C(c1ncccc1C(=O)N1CCCCC1)Cn1c-2c(C2CCCCC2)c2ccc(C(=O)O)cc21 | 4.58 to 500 nM | 4.58 to 500 nM | – | – |
| COc1ccc2c(c1)C=C(c1ccccc1OCCN(C)C)Cn1c-2c(C2CCCCC2)c2ccc(C(=O)NS(=O)(=O)C(C)C)cc21 | 4.58 to 500 nM | 4.58 to 500 nM | – | – |
| COc1ccc2c(c1)C=C(c1ccccc1S(=O)(=O)N(C)CCN(C)C)Cn1c-2c(C2CCCCC2)c2ccc(C(=O)NS(=O)(=O)C(C)C)cc21 | 4.58 to 500 nM | 4.58 to 500 nM | – | – |
| COc1ccc2c(c1)C=C(c1ccccc1S(=O)(=O)N(C)C)Cn1c-2c(C2CCCCC2)c2ccc(C(=O)NS(=O)(=O)C(C)C)cc21 | 4.58 to 500 nM | > 500 nM | – | – |
| COc1ccc2c(c1)C=C(c1ccccc1NC(=O)C1CC1)Cn1c-2c(C2CCCCC2)c2ccc(C(=O)NS(=O)(=O)C(C)C)cc21 | 4.58 to 500 nM | 4.58 to 500 nM | – | – |
| COc1ccc2c(c1)C=C(c1ccccc1-c1noc(C)n1)Cn1c-2c(C2CCCCC2)c2ccc(C(=O)NS(=O)(=O)C(C)C)cc21 | 4.58 to 500 nM | 4.58 to 500 nM | – | – |
| COc1ccc2c(c1)C=C(c1nccc(N(C)C)n1)Cn1c-2c(C2CCCCC2)c2ccc(C(=O)O)cc21 | > 500 nM | > 500 nM | – | – |
| COc1ccc2c(c1)C=C(c1ccc(N3CCOCC3)nn1)Cn1c-2c(C2CCCCC2)c2ccc(C(=O)NS(=O)(=O)N(C)C)cc21 | 4.58 to 500 nM | > 500 nM | – | – |
| COc1ccc2c(c1)C=C(c1ncccc1C(=O)N1CCOCC1)Cn1c-2c(C2CCCCC2)c2ccc(C(=O)NS(=O)(=O)N(C)C)cc21 | 4.58 to 500 nM | 4.58 to 500 nM | – | – |
| COc1ccc2c(c1)C=C(c1ncccc1S(=O)(=O)N1CCOCC1)Cn1c-2c(C2CCCCC2)c2ccc(C(=O)NS(=O)(=O)N(C)C)cc21 | 4.58 to 500 nM | 4.58 to 500 nM | – | – |
| COc1ccc2c(c1)C=C(c1cccc(OCCN(C)C)c1)Cn1c-2c(C2CCCCC2)c2ccc(C(=O)O)cc21 | 4.58 to 500 nM | > 500 nM | – | – |
| COc1ccc2c(c1)C=C(c1nccc(C(=O)N3CCOCC3)n1)Cn1c-2c(C2CCCCC2)c2ccc(C(=O)NS(=O)(=O)N(C)C)cc21 | 4.58 to 500 nM | 4.58 to 500 nM | – | – |
| COc1ccc2c(c1)C=C(c1cccc3c1OC(F)(F)O3)Cn1c-2c(C2CCCCC2)c2ccc(C(=O)O)cc21 | 4.58 to 500 nM | > 500 nM | – | – |
| COc1ccc2c(c1)C=C(c1ccccc1)Cn1c-2c(C2CCCCC2)c2ccc(C(=O)NS(=O)(=O)N(C)C)cc21 | 4.58 to 500 nM | > 500 nM | – | – |
| COc1ccc2c(c1)C=C(c1ccccc1C(=O)N1C3CCC1CN(C)C3)Cn1c-2c(C2CCCCC2)c2ccc(C(=O)O)cc21 | – | – | 4.58 to 500 nM | 4.58 to 500 nM |
| COc1ccc2c(c1)C=C(c1ncccc1N(C)C)Cn1c-2c(C2CCCCC2)c2ccc(C(=O)NS(=O)(=O)N(C)C)cc21 | 4.58 to 500 nM | 4.58 to 500 nM | – | – |
| COc1ccc2c(c1)C=C(c1cccc(OCCN3CCOCC3)c1)Cn1c-2c(C2CCCCC2)c2ccc(C(=O)NS(=O)(=O)C(C)C)cc21 | 4.58 to 500 nM | > 500 nM | – | – |
| COc1ccc2c(c1)C=C(c1ncccc1S(=O)(=O)N1C3CCC1CN(C)C3)Cn1c-2c(C2CCCCC2)c2ccc(C(=O)O)cc21 | – | – | > 500 nM | 4.58 to 500 nM |
| COc1ccc2c(c1)C=C(c1nccc(N(C)C)n1)Cn1c-2c(C2CCCCC2)c2ccc(C(=O)NS(=O)(=O)N(C)C)cc21 | 4.58 to 500 nM | > 500 nM | – | – |
| COc1ccc2c(c1)C=C(c1ncccc1N1CC(C)(C)C1=O)Cn1c-2c(C2CCCCC2)c2ccc(C(=O)NS(=O)(=O)N(C)C)cc21 | 4.58 to 500 nM | 4.58 to 500 nM | – | – |
